Laboratory results published in ChEMBL document CHEMBL1201862, “PubChem BioAssay data set” (2004).
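Five concentrations, 48 hours, 96-well plates. GI50 marks 50% less growth.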 Active and inactive are the calls of the source. No stated cut-off is given here; in the data, active = GI50 up to about 1.1 µM and inactive = higher.

Key:
Assay in all cases: inhibition of tumour cell growth, NCI panel, 48 h
786-0 = system: 786-0
A498 = system: A498
A549 = system: A549
BT-549 = system: BT-549
CAKI-1 = system: CAKI-1
CCRF-CEM = system: CCRF-CEM
COLO 205 = system: COLO 205
DU-145 = system: DU-145
EKVX = system: EKVX
HCT-116 = system: HCT-116
HCT-15 = system: HCT-15
HL-60 = system: HL-60
HOP-62 = system: HOP-62
HT-29 = system: HT-29
Hs-578T = system: Hs-578T
IGROV-1 = system: IGROV-1
K562 = system: K562
KM12 = system: KM12
LOX IMVI = system: LOX IMVI
M14 = system: M14
MCF7 = system: MCF7
MDA-MB-231 = system: MDA-MB-231
MDA-MB-435 = system: MDA-MB-435
MDA-N = system: MDA-N
MOLT-4 = system: MOLT-4
Malme-3M = system: Malme-3M
NCI-H226 = system: NCI-H226
NCI-H460 = system: NCI-H460
NCI-H522 = system: NCI-H522
NCI/ADR-RES = system: NCI/ADR-RES
OVCAR-3 = system: OVCAR-3
OVCAR-4 = system: OVCAR-4
OVCAR-5 = system: OVCAR-5
OVCAR-8 = system: OVCAR-8
PC-3 = system: PC-3
RPMI-8226 = system: RPMI-8226
RXF 393 = system: RXF 393
SF-268 = system: SF-268
SF-295 = system: SF-295
SF-539 = system: SF-539
SK-MEL-28 = system: SK-MEL-28
SK-MEL-2 = system: SK-MEL-2
SK-MEL-5 = system: SK-MEL-5
SK-OV-3 = system: SK-OV-3
SN12C = system: SN12C
SNB-19 = system: SNB-19
SNB-75 = system: SNB-75
SR = system: SR
SW-620 = system: SW-620
T47D = system: T47D
TK-10 = system: TK-10
U-251 = system: U-251
UACC-257 = system: UACC-257
UACC-62 = system: UACC-62
UO-31 = system: UO-31
HCC 2998 = system: HCC 2998
HOP-92 = system: HOP-92
NCI-H23 = system: NCI-H23
ACHN = system: ACHN

Measured: GI50

O=C(NNC(=O)c1ccccc1O)c1ccco1
inactive: 786-0 > 100 µM | A498 > 100 µM | A549 > 100 µM | BT-549 > 100 µM | CAKI-1 > 100 µM | CCRF-CEM 31.3 µM | COLO 205 83 µM | DU-145 > 100 µM | EKVX > 100 µM | HCT-116 97.5 µM | HL-60 28.9 µM | HOP-62 > 100 µM | HT-29 51.5 µM | Hs-578T > 100 µM | IGROV-1 64.9 µM | K562 > 100 µM | KM12 > 100 µM | LOX IMVI > 100 µM | M14 > 100 µM | MCF7 > 100 µM | MDA-MB-231 60.5 µM | MDA-MB-435 > 100 µM | MDA-N > 100 µM | MOLT-4 > 100 µM | Malme-3M > 100 µM | NCI-H226 > 100 µM | NCI-H460 45.4 µM | NCI-H522 57.3 µM | NCI/ADR-RES 55.7 µM | OVCAR-3 57.4 µM | OVCAR-4 > 100 µM | OVCAR-5 > 100 µM | OVCAR-8 80.7 µM | PC-3 > 100 µM | RPMI-8226 84.5 µM | RXF 393 > 100 µM | SF-268 > 100 µM | SF-295 > 100 µM | SF-539 > 100 µM | SK-MEL-28 > 100 µM | SK-MEL-2 > 100 µM | SK-MEL-5 > 100 µM | SK-OV-3 > 100 µM | SN12C > 100 µM | SNB-19 > 100 µM | SNB-75 38.6 µM | SR 66.7 µM | SW-620 67.8 µM | T47D > 100 µM | TK-10 > 100 µM | U-251 > 100 µM | UACC-257 > 100 µM | UACC-62 > 100 µM | UO-31 > 100 µM
61.1 µM: HCT-15

c1ccc2c(c1)C(=Nc1ccc(N=C3c4ccccc4-c4ccccc43)cc1)c1ccccc1-2
inactive: 786-0 > 100 µM | A498 > 100 µM | A549 > 100 µM | BT-549 > 100 µM | CAKI-1 > 100 µM | CCRF-CEM > 100 µM | COLO 205 > 100 µM | DU-145 > 100 µM | EKVX > 100 µM | HCC 2998 > 100 µM | HCT-116 > 100 µM | HL-60 54.1 µM | HOP-62 > 100 µM | HOP-92 > 100 µM | HT-29 > 100 µM | Hs-578T > 100 µM | IGROV-1 > 100 µM | K562 > 100 µM | KM12 > 100 µM | LOX IMVI > 100 µM | M14 > 100 µM | MCF7 > 100 µM | MDA-MB-231 > 100 µM | MDA-MB-435 > 100 µM | MDA-N > 100 µM | MOLT-4 > 100 µM | Malme-3M > 100 µM | NCI-H226 > 100 µM | NCI-H23 > 100 µM | NCI-H460 > 100 µM | NCI-H522 > 100 µM | NCI/ADR-RES > 100 µM | OVCAR-3 > 100 µM | OVCAR-4 > 100 µM | OVCAR-5 > 100 µM | OVCAR-8 > 100 µM | PC-3 > 100 µM | RPMI-8226 > 100 µM | RXF 393 > 100 µM | SF-268 > 100 µM | SF-295 > 100 µM | SK-MEL-2 > 100 µM | SK-MEL-5 > 100 µM | SK-OV-3 > 100 µM | SN12C > 100 µM | SNB-19 > 100 µM | SW-620 > 100 µM | T47D > 100 µM | TK-10 > 100 µM | U-251 > 100 µM | UACC-257 > 100 µM | UACC-62 > 100 µM | UO-31 > 100 µM
> 100 µM: HCT-15

CC(=O)NC(CSC1=C2NC(=O)\C=C/C=C\C=C/C(C)C(O)CC(=O)/C(C)=C\CC(O)/C=C\C(C)C(O)C(C)C=C(C)C(=O)c3c(O)c(C)cc(c3C1=O)C2=O)C(=O)O (centres undefined)
> 100 µM: HCT-15
inactive: 786-0 89.7 µM | A498 > 100 µM | A549 > 100 µM | ACHN 66.4 µM | BT-549 > 100 µM | CAKI-1 > 100 µM | CCRF-CEM 22.3 µM | COLO 205 21.7 µM | DU-145 61.8 µM | EKVX > 100 µM | HCT-116 36.4 µM | HL-60 23.6 µM | HOP-62 74 µM | HOP-92 > 100 µM | HT-29 47.2 µM | Hs-578T 27.5 µM | IGROV-1 43.1 µM | K562 39.1 µM | KM12 33.7 µM | LOX IMVI 69.2 µM | M14 > 100 µM | MCF7 53.3 µM | MDA-MB-231 24.6 µM | MDA-MB-435 > 100 µM | MDA-N 51.4 µM | MOLT-4 28.6 µM | Malme-3M 52.1 µM | NCI-H226 > 100 µM | NCI-H23 > 100 µM | NCI-H460 94 µM | NCI-H522 17.3 µM | NCI/ADR-RES > 100 µM | OVCAR-3 96.6 µM | OVCAR-4 > 100 µM | OVCAR-5 > 100 µM | OVCAR-8 > 100 µM | PC-3 > 100 µM | SF-295 > 100 µM | SF-539 > 100 µM | SK-MEL-28 30.3 µM | SK-MEL-2 80.7 µM | SK-MEL-5 39.3 µM | SK-OV-3 > 100 µM | SN12C 79.1 µM | SNB-19 61.4 µM | SNB-75 28.6 µM | SR 33.5 µM | SW-620 45.7 µM | T47D 91 µM | TK-10 > 100 µM | U-251 43.2 µM | UACC-257 41.8 µM | UACC-62 51.5 µM | UO-31 > 100 µM

CN(c1ccccc1Cl)S(=O)(=O)c1ccc([N+](=O)[O-])cc1
inactive: 786-0 > 100 µM | A549 > 100 µM | ACHN > 100 µM | BT-549 > 100 µM | CAKI-1 > 100 µM | CCRF-CEM > 100 µM | COLO 205 > 100 µM | DU-145 > 100 µM | EKVX > 100 µM | HCC 2998 > 100 µM | HCT-116 > 100 µM | HL-60 > 100 µM | HOP-62 > 100 µM | HT-29 > 100 µM | Hs-578T > 100 µM | IGROV-1 > 100 µM | K562 > 100 µM | KM12 > 100 µM | LOX IMVI > 100 µM | M14 > 100 µM | MCF7 > 100 µM | MDA-MB-231 > 100 µM | MDA-MB-435 > 100 µM | MDA-N > 100 µM | MOLT-4 > 100 µM | Malme-3M > 100 µM | NCI-H226 > 100 µM | NCI-H23 > 100 µM | NCI-H460 > 100 µM | NCI-H522 > 100 µM | NCI/ADR-RES > 100 µM | OVCAR-3 > 100 µM | OVCAR-4 > 100 µM | OVCAR-5 > 100 µM | OVCAR-8 > 100 µM | PC-3 > 100 µM | RPMI-8226 > 100 µM | RXF 393 > 100 µM | SF-268 > 100 µM | SF-295 > 100 µM | SF-539 > 100 µM | SK-MEL-28 > 100 µM | SK-MEL-2 > 100 µM | SK-MEL-5 > 100 µM | SK-OV-3 > 100 µM | SN12C > 100 µM | SNB-19 > 100 µM | SNB-75 > 100 µM | SR > 100 µM | SW-620 > 100 µM | T47D > 100 µM | TK-10 > 100 µM | U-251 > 100 µM | UACC-257 > 100 µM | UACC-62 > 100 µM | UO-31 > 100 µM
> 100 µM: HCT-15

CC1=C(/C=C/C(C)=C/C=C/C(C)=C/C(=O)OC2CC(n3cc(F)c(=O)[nH]c3=O)OC2CO)C(C)(C)CCC1 (centres undefined)
4.35 µM: HCT-15
active: 786-0 0.52 µM | A549 0.153 µM | ACHN 0.082 µM | CAKI-1 0.383 µM | CCRF-CEM 0.374 µM | DU-145 0.476 µM | HCT-116 0.748 µM | HL-60 0.628 µM | HOP-62 0.158 µM | MCF7 0.057 µM | MOLT-4 0.2 µM | NCI-H460 0.0429 µM | OVCAR-8 0.526 µM | RPMI-8226 0.254 µM | SF-268 0.252 µM | SF-295 0.148 µM | SF-539 0.0577 µM | SNB-75 1.07 µM | SR 0.247 µM | UACC-62 0.184 µM | UO-31 0.431 µM
inactive: BT-549 1.58 µM | COLO 205 6.93 µM | EKVX 13.9 µM | HCC 2998 1.97 µM | HOP-92 11.3 µM | HT-29 2.71 µM | Hs-578T 6.62 µM | IGROV-1 7.13 µM | K562 1.63 µM | KM12 12.2 µM | LOX IMVI 2.15 µM | M14 1.35 µM | MDA-MB-231 9.73 µM | MDA-MB-435 3.97 µM | MDA-N 6.82 µM | Malme-3M 12.1 µM | NCI-H226 25.4 µM | NCI-H23 2.75 µM | NCI-H522 1.17 µM | NCI/ADR-RES 2.05 µM | OVCAR-3 4.72 µM | OVCAR-4 6.01 µM | OVCAR-5 17.3 µM | PC-3 1.99 µM | RXF 393 6.3 µM | SK-MEL-28 7.73 µM | SK-MEL-2 24.9 µM | SK-MEL-5 1.18 µM | SK-OV-3 2.05 µM | SN12C 4.5 µM | SNB-19 3.34 µM | SW-620 10.6 µM | T47D 4.17 µM | TK-10 11.5 µM | U-251 1.2 µM | UACC-257 7.91 µM
